From PMC3889502, “Inhibitory effects of monoterpenes on human TRPA1 and the structural basis of their activity” (The Journal of Physiological Sciences : JPS, 2013)
“Also recorded” adds a separate entry of the source.

What was measured:
hTRPA1 [1] = target: T1, hTRPA1 (Homo sapiens, UniProt O75762); conditions: cited from earlier work
T1 construct: Full-length hTRPA1 was obtained from Life Technologies (Carlsbad, CA); host or cells: HEK293T

hTRPA1 [2] = target: T1, hTRPA1; assay: Whole-cell patch-clamp: inhibition of agonist-induced hTRPA1 current; assay type: cell-based; conditions: for Comparison of inhibitory effects on hTRPA1 activity between optical isomers of borneol: AITC 20 μM-induced current (ESM Fig. 2); for IC50 / Inhibition of AITC-induced hTRPA1 current: AITC 20 μM; for IC50: patch-clamp, mean ± SEM, n = 5-10, Hill fit; for IC50 / Inhibition of AITC-induced hTRPA1 current / Inhibition of FFA-activated hTRPA1-mediated current / Inhibition of menthol-activated hTRPA1-mediated current: no extracellular Ca2+; for Inhibition of AITC-induced hTRPA1 current / Inhibition of FFA-activated hTRPA1-mediated current / Inhibition of menthol-activated hTRPA1-mediated current: test compound 1 mM, -60 mV; for Inhibition of FFA-activated hTRPA1-mediated current: FFA 100 μM; for Inhibition of menthol-activated hTRPA1-mediated current: menthol 1 mM
Description: (§1) Human embryonic kidney (HEK) 293T cells were maintained in DMEM (WAKO Pure Chemical Industries Ltd.) supplemented with 10 % fetal bovine serum (Biowest SAS, Caille, France), 100 U/mL penicillin (Life Technologies), 100 μg/mL streptomycin (Life Technologies), and 2 mM L-glutamine (GlutaMAX; Life Technologies) at 37 °C in 5 % CO2. For Ca^2+-imaging, 1 μg of plasmid DNA containing hTRPA1 in pcDNA3 in OPTI-MEM medium (Life Technologies) was transfected into HEK293T cells using Lipofectamine Plus Reagent (Life Technologies). Following incubation for 3–4 h, cells were reseeded on coverslips and incubated further at 37 °C in 5 % CO2.
(§2) Whole-cell patch-clamp recordings were performed 1 day after transfection. The standard bath solution was the same as that used in the Ca^2+-imaging experiments, and extracellular Ca^2+ was removed and 5 mM EGTA added for the recording of AITC-, menthol- and FFA-induced current responses. The pipette solution contained 140 mM KCl, 5 mM EGTA, and 10 mM HEPES, pH 7.4 (adjusted with KOH). Data from the whole-cell voltage-clamp recordings were sampled at 10 kHz and filtered at 5 kHz for analysis (Axon 200B amplifier with pCLAMP software; Axon Instruments, Sunnyvale, CA). The membrane potential was clamped at −60 mV for all conditions. In some experiments, voltage ramp-pulses from −100 to +100 mV (500 ms) were applied every 5 s. All experiments were performed at room temperature.
(§3) Data in all of the figures are shown as the mean ± standard error of the mean, and P values of <0.05 were considered to be significant. […] Dose-dependent curves were fit with a Hill equation.
The current response was measured in the absence of extracellular Ca^2+ to minimize desensitization. […] The dose-dependency of the inhibitory effects of the three compounds on hTRPA1 was then examined using the patch-clamp method. […] Commercially available borneol contains both optical isomers.

hTRPA1 [3] = target: T1, hTRPA1; assay: Whole-cell patch-clamp: activation of hTRPA1 current by test compounds; assay type: cell-based; conditions: HEK293T cells expressing hTRPA1
Description: as §1, §2
In order to confirm the effects of the above compounds, we performed patch-clamp experiments with HEK293T cells expressing hTRPA1.
Cells were held at −60 mV and ramp-pulses from −100 to +100 mV (500 ms) were administered every 5 s

hTRPA1 [4] = target: T1, hTRPA1; assay: Ca2+-imaging (fura-2): activation by test compounds, normalized to menthol; assay type: cell-based; conditions: test compound 1 mM; HEK293T cells expressing hTRPA1
Description: (§4) For Ca^2+-imaging, 1 μg of plasmid DNA containing hTRPA1 in pcDNA3 in OPTI-MEM medium (Life Technologies) was transfected into HEK293T cells using Lipofectamine Plus Reagent (Life Technologies). Following incubation for 3–4 h, cells were reseeded on coverslips and incubated further at 37 °C in 5 % CO2.
(§5) Ca^2+-imaging was performed 1 day after transfection. […] Cytosolic-free Ca^2+ concentrations in HEK293T cells were measured by dual-wavelength fura-2 (Molecular Probes, Invitrogen Corp.) microfluorometry with excitation at 340/380 nm and emission at 510 nm. The fura-2 ratio image was calculated and acquired using the IP-Lab imaging processing system (Scanalytics Inc, Fairfax, VA). Ionomycin was used to confirm cell viability in the vector-transfected cells.
In these experiments, changes in the fura-2 ratio (corresponding to cytosolic Ca^2+ concentrations) induced by the test compounds and menthol were compared because menthol, which activates hTRPA1, and the test compounds are members of the monoterpene family.
Data are presented as the mean ± standard error of the mean (SEM) (n = 27–67)

hTRPA1 [5] = target: T1, hTRPA1; assay: Ca2+-imaging (fura-2): inhibition of menthol-induced cytosolic Ca2+ increase; assay type: cell-based; conditions: menthol 1 mM; test compound 1 mM; HEK293T cells expressing hTRPA1
Description: as §4, §5
Data are presented as the mean ± SEM (n = 47–79)

[6] = system: vector-transfected HEK293T cells; assay: Ca2+-imaging in vector-transfected cells (control); assay type: cell-based, human; conditions: with or without menthol; cells responded normally to ionomycin 5 μM
Description: (§6) Ca^2+-imaging was performed 1 day after transfection. HEK293T cells on coverslips were mounted in an open chamber and superfused with a standard bath solution (140 mM NaCl, 5 mM KCl, 2 mM MgCl2, 2 mM CaCl2, 10 mM HEPES, and 10 mM glucose, pH 7.4). Cytosolic-free Ca^2+ concentrations in HEK293T cells were measured by dual-wavelength fura-2 (Molecular Probes, Invitrogen Corp.) microfluorometry with excitation at 340/380 nm and emission at 510 nm. The fura-2 ratio image was calculated and acquired using the IP-Lab imaging processing system (Scanalytics Inc, Fairfax, VA). Ionomycin was used to confirm cell viability in the vector-transfected cells.
Washing-out of the three compounds after menthol exposure led to small increases in the fura-2 ratio, which could be due to the loss of inhibition and resumption of hTRPA1 activity from residual menthol in the cell.
Supplementary file 12576_2013_289_MOESM1_ESM.jpg: Supplementary material 1 (JPEG 324 kb) Supplementary Figure 1. […] (n = 48-75)

hTRPA1-S873V/T874L = target: T2, hTRPA1-S873V/T874L (Homo sapiens, UniProt O75762, S873V/T874L); assay: Whole-cell patch-clamp: inhibition of AITC-activated current in the mutant channel; assay type: cell-based; conditions: borneol 0.03, 0.3, 1 mM; camphor 0.03, 0.3, 3 mM; 1,8-cineole 1, 5, 10 mM; -60 mV; no extracellular Ca2+
T2 construct: Full-length hTRPA1 was obtained from Life Technologies (Carlsbad, CA); expressed in transfected cells; host or cells: HEK293T
Description: as §2, §3
(§7) To test this hypothesis, we investigated whether the serine and threonine residues are involved in the inhibitory effect of borneol. […] We searched for an involvement of other amino acids in borneol activity.

hTRPA1-Y812A = target: T3, hTRPA1-Y812A (Homo sapiens, UniProt O75762, Y812A); assay: as above; assay type: cell-based; conditions: borneol 0.03, 0.3, 1 mM; camphor 0.03, 0.3, 3 mM; 1,8-cineole 1, 5, 10 mM; -60 mV; no extracellular Ca2+
T3 construct: Full-length hTRPA1 was obtained from Life Technologies (Carlsbad, CA); expressed in transfected cells; host or cells: HEK293T
Description: as §2, §3, §7

mTRPA1 = conditions: camphor 1 mM; current increased upon washing-out; cited from earlier work
hTRPA1 Y812A mutant = target: T4, hTRPA1 Y812A mutant (Homo sapiens, UniProt O75762, Y812A); assay: Ca2+-imaging screen of tyrosine mutants in TM2 and TM3 of hTRPA1; assay type: cell-based; conditions: data not shown
T4 construct: Full-length hTRPA1 was obtained from Life Technologies (Carlsbad, CA); expressed in transfected cells; host or cells: HEK293T
Description: as §6
A mouse TRPA1 mutant in which serine and threonine residues located in the predicted inner side of TM5 were replaced with valine and leucine (S876V/T877L), respectively, was neither activated nor inhibited by menthol. […] To test this hypothesis, we investigated whether the serine and threonine residues are involved in the inhibitory effect of borneol. […] We searched for an involvement of other amino acids in borneol activity.

[7] = test compound 1 mM, held at -60 mV, ramp-pulses -100 to +100 mV

T1 sequence (O75762 whole entry): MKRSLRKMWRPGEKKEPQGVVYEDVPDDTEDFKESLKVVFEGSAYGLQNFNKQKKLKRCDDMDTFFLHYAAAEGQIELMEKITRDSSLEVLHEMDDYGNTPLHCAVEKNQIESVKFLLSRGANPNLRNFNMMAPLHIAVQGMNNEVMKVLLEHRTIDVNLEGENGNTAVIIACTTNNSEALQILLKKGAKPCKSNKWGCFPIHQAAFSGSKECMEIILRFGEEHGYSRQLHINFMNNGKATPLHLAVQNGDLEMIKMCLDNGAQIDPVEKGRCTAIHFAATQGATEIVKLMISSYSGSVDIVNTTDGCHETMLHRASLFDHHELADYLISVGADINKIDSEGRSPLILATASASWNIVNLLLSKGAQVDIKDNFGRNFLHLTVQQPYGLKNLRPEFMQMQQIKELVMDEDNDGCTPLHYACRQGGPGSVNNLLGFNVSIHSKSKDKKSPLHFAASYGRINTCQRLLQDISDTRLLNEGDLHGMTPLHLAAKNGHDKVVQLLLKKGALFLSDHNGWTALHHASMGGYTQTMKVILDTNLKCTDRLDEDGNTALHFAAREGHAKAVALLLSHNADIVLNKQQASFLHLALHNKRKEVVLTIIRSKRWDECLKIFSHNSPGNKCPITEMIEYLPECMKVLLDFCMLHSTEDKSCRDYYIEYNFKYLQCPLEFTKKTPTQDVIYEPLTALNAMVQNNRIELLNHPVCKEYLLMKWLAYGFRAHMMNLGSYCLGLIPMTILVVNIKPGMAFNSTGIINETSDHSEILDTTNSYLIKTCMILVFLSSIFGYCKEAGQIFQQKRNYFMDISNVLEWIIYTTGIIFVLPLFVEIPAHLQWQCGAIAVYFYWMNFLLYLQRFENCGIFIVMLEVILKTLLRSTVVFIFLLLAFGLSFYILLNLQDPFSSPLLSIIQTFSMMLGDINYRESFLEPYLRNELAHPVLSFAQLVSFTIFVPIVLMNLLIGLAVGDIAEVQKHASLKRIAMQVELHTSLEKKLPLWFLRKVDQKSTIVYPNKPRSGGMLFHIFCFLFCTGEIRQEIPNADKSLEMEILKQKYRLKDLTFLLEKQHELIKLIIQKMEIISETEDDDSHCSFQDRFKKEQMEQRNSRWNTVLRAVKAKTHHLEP
T3 sequence (O75762 whole entry Y812A): as the sequence (O75762 whole entry) above, with Y812A counted along it
T2 sequence (O75762 whole entry S873V/T874L): as the sequence (O75762 whole entry) above, with S873V, T874L counted along it
T4 sequence (O75762 whole entry Y812A): as the sequence (O75762 whole entry) above, with Y812A counted along it

CC(C)C12CCC(C)(CC1)O2 [1,4-cineole]
Effect on hTRPA1 (activation or inhibition) (hTRPA1 [1]): activate hTRPA1

CC1(C)[C@H]2CC[C@]1(C)[C@H](O)C2 [(−)-borneol]
Comparison of inhibitory effects on hTRPA1 activity between optical isomers of borneol (hTRPA1 [2]): no difference in the inhibitory effects

C=CCN=C=S [AITC, allyl isothiocyanate, reference compound]
Activation of whole-cell hTRPA1 current (hTRPA1 [3]; AITC 20 μM): robust current activation with outward rectification

CC1(C)[C@@H]2CC[C@@]1(C)[C@](C)(O)C2 [2-Methylisoborneol]
Change in fura-2 ratio (340/380 nm) by test compound, normalized to the change by 1 mM menthol (hTRPA1 [4]): small changes in the fura-2 ratio
Activation of whole-cell hTRPA1 current (hTRPA1 [3]; [7]): did not activate hTRPA1
Inhibition of the menthol-induced increase in fura-2 ratio (hTRPA1 [5]): almost completely blocked
IC50 (hTRPA1 [2]): 120 ± 30 µM
Inhibition of AITC-induced hTRPA1 current (hTRPA1 [2]): completely inhibited
Inhibition of FFA-activated hTRPA1-mediated current (hTRPA1 [2]): completely inhibited
Inhibition of menthol-activated hTRPA1-mediated current (hTRPA1 [2]): completely inhibited
Effect on fura-2 ratio in vector-transfected cells [6]: did not provide any effect; also recorded: No changes in the fura-2 ratio

CC12CCC(CC1=O)C2(C)C (centres unmarked) [Camphor]
Inhibition of AITC-induced hTRPA1 current (hTRPA1 [2]): partially inhibited
Inhibitory effect on AITC-activated current of hTRPA1-S873V/T874L compared with hTRPA1-WT (hTRPA1-S873V/T874L): no significant changes
Inhibitory effect on AITC-activated current of hTRPA1-Y812A compared with hTRPA1-WT (hTRPA1-Y812A): such differences between WT hTRPA1 and hTRPA1-Y812A were not observed
Effect on hTRPA1 (activation or inhibition) (hTRPA1 [1]): inhibit hTRPA1
Effect on mTRPA1-mediated basal current (mTRPA1): inhibition of mTRPA1-mediated basal current

CC12CCC(C1)C(C)(C)C2=O (single isomer, unassigned; (-)) [(−)-Fenchone]
Change in fura-2 ratio (340/380 nm) by test compound, normalized to the change by 1 mM menthol (hTRPA1 [4]): activated hTRPA1

CC12CCC(CC1)C(C)(C)O2 [1,8-Cineole]
Inhibitory effect on AITC-activated current of hTRPA1-S873V/T874L compared with hTRPA1-WT (hTRPA1-S873V/T874L): no significant changes
Inhibitory effect on AITC-activated current of hTRPA1-Y812A compared with hTRPA1-WT (hTRPA1-Y812A): such differences between WT hTRPA1 and hTRPA1-Y812A were not observed
Effect on hTRPA1 (activation or inhibition) (hTRPA1 [1]): inhibit hTRPA1

CC1CCC(C(C)C)C(O)C1 (centres unmarked) [menthol]
Effect on hTRPA1 (activation or inhibition) (hTRPA1 [1]): activate hTRPA1

CC12CCC(C1)C(C)(C)C2O (centres unmarked) [Fenchyl alcohol]
Activation of whole-cell hTRPA1 current (hTRPA1 [3]; [7]): did not activate hTRPA1
Inhibition of AITC-induced hTRPA1 current (hTRPA1 [2]): completely inhibited
Inhibition of FFA-activated hTRPA1-mediated current (hTRPA1 [2]): completely inhibited
Inhibition of menthol-activated hTRPA1-mediated current (hTRPA1 [2]): completely inhibited

CC1(C)[C@@H]2CC[C@@]1(C)[C@@H](O)C2 [(+)-borneol]
Comparison of inhibitory effects on hTRPA1 activity between optical isomers of borneol (hTRPA1 [2]): no difference in the inhibitory effects

O=C1CC2CC[C@H]1C2 [Norcamphor]
Change in fura-2 ratio (340/380 nm) by test compound, normalized to the change by 1 mM menthol (hTRPA1 [4]): small changes in the fura-2 ratio
Activation of whole-cell hTRPA1 current (hTRPA1 [3]; [7]): did not activate hTRPA1
Inhibition of the menthol-induced increase in fura-2 ratio (hTRPA1 [5]): did not inhibit
Effect on fura-2 ratio in vector-transfected cells [6]: did not provide any effect; also recorded: No changes in the fura-2 ratio

CC1(C)C2CCC1(C)C(O)C2 (centres unmarked) [Borneol]
Change in fura-2 ratio (340/380 nm) by test compound, normalized to the change by 1 mM menthol (hTRPA1 [4]): small changes in the fura-2 ratio
Activation of whole-cell hTRPA1 current (hTRPA1 [3]; [7]): did not activate hTRPA1
Inhibition of the menthol-induced increase in fura-2 ratio (hTRPA1 [5]): almost completely blocked
IC50 (hTRPA1 [2]): 200 ± 60 µM
Inhibition of AITC-induced hTRPA1 current (hTRPA1 [2]): completely inhibited
Inhibition of FFA-activated hTRPA1-mediated current (hTRPA1 [2]): completely inhibited
Inhibition of menthol-activated hTRPA1-mediated current (hTRPA1 [2]): completely inhibited
Inhibitory effect on AITC-activated current of hTRPA1-S873V/T874L compared with hTRPA1-WT (hTRPA1-S873V/T874L): significantly lower
Inhibitory effect on AITC-activated current of hTRPA1-Y812A compared with hTRPA1-WT (hTRPA1-Y812A): significantly lower inhibitory effect
Effect on fura-2 ratio in vector-transfected cells [6]: did not provide any effect; also recorded: No changes in the fura-2 ratio
Effect of borneol on the Y812A mutant in Ca2+-imaging (hTRPA1 Y812A mutant): reduced
